From patent US20250026752A1, “POSITIVE ALLOSTERIC MODULATORS OF THE MUSCARINIC ACETYLCHOLINE RECEPTOR M4” (Vanderbilt University, priority 2021, published 2025)

Target: T1, human mAChR M4 (Homo sapiens, UniProt P08173)
T1 construct: expressed in transfected cells; host or cells: CHO-K1 (ATCC), stably expressing hM4 and Gqi5
T1 sequence (P08173 1-479): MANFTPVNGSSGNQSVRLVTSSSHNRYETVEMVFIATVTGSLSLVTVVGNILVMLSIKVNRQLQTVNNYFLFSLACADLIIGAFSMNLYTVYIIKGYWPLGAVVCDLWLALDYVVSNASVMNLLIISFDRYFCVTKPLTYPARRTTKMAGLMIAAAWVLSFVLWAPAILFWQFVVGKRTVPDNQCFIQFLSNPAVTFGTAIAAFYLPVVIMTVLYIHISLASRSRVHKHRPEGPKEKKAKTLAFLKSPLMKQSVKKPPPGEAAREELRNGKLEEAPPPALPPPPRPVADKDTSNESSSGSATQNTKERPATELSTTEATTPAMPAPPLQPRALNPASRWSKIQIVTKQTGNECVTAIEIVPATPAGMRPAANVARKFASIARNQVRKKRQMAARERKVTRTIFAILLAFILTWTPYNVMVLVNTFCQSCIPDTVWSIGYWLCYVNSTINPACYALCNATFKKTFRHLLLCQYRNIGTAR
Test: mAChR M4 cell-based functional assay: calcium flux (Fluo-4, FDSS), positive allosteric modulator activity on the EC20 acetylcholine response, hM4-Gqi5 CHO-K1 cells
Settings: for Emax at 30 µM: CHO-K1, human M4, % ACh maximum at 30 μM; for EC50: human M4, PAM activity on EC20 acetylcholine response, calcium flux, read-out: Human M4 EC50
Procedure: Human M4 cDNA, along with the chimeric G protein Gqi5, were transfected into Chinese hamster ovary (CHO-K1) cells purchased from the American Type Culture Collection using commercially available Lipofectamine 2000 transfection reagent (Dalby, B. et al., Methods (2004) 33(2), 95-103). hM4-Gqi5 cells were grown in Ham's F-12 medium containing 10% heat-inactivated fetal bovine serum (FBS), 20 mM […], 50 μg/mL G418 sulfate (CAS #108321-42-2), and 500 μg/mL Hygromycin B. rM4-Gqi5 cells were grown in DMEM containing 10% heat-inactivated FBS, 20 mM HEPES, 400 μg/mL G418 sulfate, and 500 μg/mL Hygromycin B.
For high throughput measurement of agonist-evoked increases in intracellular calcium, CHO-K1 cells stably expressing muscarinic receptors were plated in growth medium lacking G418 sulfate and hygromycin at 15,000 cells/20 μL/well in Greiner 384-well black-walled, tissue culture (TC)-treated, clear-bottom plates (VWR). Cells were incubated overnight at 37° C. and 5% C02. The next day, cells were washed using an ELX 405 (BioTek) with assay buffer; the final volume was then aspirated to 20 μL. Next, 20 μL of a 2.3 μM stock of Fluo-4/acetoxymethyl ester (Invitrogen, Carlsbad, CA), prepared as a 2.3 mM stock in DMSO and mixed in a 1:1 ratio with 10% (w/v) Pluronic F-127 and diluted in assay buffer, was added to the wells and the cell plates were incubated for 50 minutes at 37° C. and 5% C02. Dye was removed by washing with the ELX 405 and the final volume was aspirated to 20 μL. Compound master plates were formatted in an 11 point concentration-response curve (CRC) format (1:3 dilutions) in 100% DMSO with a starting concentration of 10 mM using a BRAVO liquid handler (Agilent). Test compound CRCs were then transferred to daughter plates (240 nL) using the Echo acoustic plate reformatter (Labcyte, Sunnyvale, CA) and then diluted into assay buffer (40 μL) to a 2× stock using a Thermo Fisher Combi (Thermo Fisher Scientific, Waltham, MA).
Calcium flux was measured using the Functional Drug Screening System (FDSS) 6000 or 7000 (Hamamatsu Corporation, Tokyo, Japan) as an increase in the fluorescent static ratio. Compounds were applied to cells (20 μL, 2×) using the automated system of the FDSS at 2-4 seconds into the protocol and the data were collected at 1 Hz. At 144 seconds, 10 μL of an EC20 concentration of the muscarinic receptor agonist acetylcholine was added (5×), followed by the addition of 12 μL of an EC80 concentration of acetylcholine at the 230 second time point (5×). Agonist activity was analyzed as a concentration-dependent increase in calcium mobilization upon compound addition. Positive allosteric modulator activity was analyzed as a concentration-dependent increase in the EC20 acetylcholine response. With the acetylcholine EC20 set as baseline, the test compound EC50 is determined as the concentration that produces an increase above baseline of 50% of the maximum increase in acetylcholine response elicted by the test compound. Antagonist activity was analyzed as a concentration-dependent decrease in the ECso acetylcholine response. Concentration-response curves were generated using a four-parameter logistical equation in XLFit curve fitting software (IDBS, Bridgewater, NJ) for Excel (Microsoft, Redmond, WA) or Prism (GraphPad Software, Inc., San Diego, CA).
Compounds were synthesized as described above. Activity (EC50 and Emax) was determined in the mAChR M4 cell-based functional assay as described above and the data are shown in Table 4. The compound numbers correspond to the compound numbers used in Examples 1-33 and Tables 1, 2, and 3.

Compound | Emax at 30 µM | EC50
Cc1ncc(-c2cnc3c(c2)CN(c2ncnc4ccc(F)cc24)CC3)s1 [Compound 27, 5-[6-(6-fluoroquinazolin-4-yl)-7,8-dihydro-5H-1,6-naphthyridin-3-yl]-2-methyl-thiazole] | 110% | 0.17 µM
Cc1nn(C)cc1-c1cnc2c(c1)CN(c1nc(Cl)nc3ccc(Cl)cc13)CC2 [Compound 28, 2,6-dichloro-4-[3-(1,3-dimethylpyrazol-4-yl)-7,8-dihydro-5H-1,6-naphthyridin-6-yl]quinazoline] | 103% | 0.57 µM
Cc1noc(C)c1-c1cnc2c(c1)CN(c1nc(Cl)nc3ccc(F)cc13)CC2 [Compound 29, 4-[6-(2-chloro-6-fluoro-quinazolin-4-yl)-7,8-dihydro-5H-1,6-naphthyridin-3-yl]-3,5-dimethyl-isoxazole] | 97% | 0.26 µM
Cc1ncc(-c2cnc3c(c2)CN(c2nc(Cl)nc4ncccc24)CC3)s1 [Compound 35, 5-[6-(2-chloropyrido[2,3-d]pyrimidin-4-yl)-7,8-dihydro-5H-1,6-naphthyridin-3-yl]-2-methyl-thiazole] | 57% | 0.61 µM
Cc1ccc(-c2cnc3c(c2)CN(c2nc(Cl)nc4ncccc24)CC3)cn1 [Compound 36, 2-chloro-4-[3-(6-methyl-3-pyridyl)-7,8-dihydro-5H-1,6-naphthyridin-6-yl]pyrido[2,3-d]pyrimidine] | 69% | 0.65 µM
Fc1ccc2ncnc(N3CCc4ncc(-c5ccc(C6CC6)nc5)cc4C3)c2c1 [Compound 37, 4-[3-(6-cyclopropyl-3-pyridyl)-7,8-dihydro-5H-1,6-naphthyridin-6-yl]-6-fluoro-quinazoline] | 88% | 0.26 µM
Cc1ccc(-c2cnc3c(c2)CN(c2ncnc4ccc(F)cc24)CC3)cn1 [Compound 38, 6-fluoro-4-[3-(6-methyl-3-pyridyl)-7,8-dihydro-5H-1,6-naphthyridin-6-yl]quinazoline] | 93% | 0.17 µM
Cn1nccc1-c1cnc2c(c1)CN(c1ncnc3ccc(Cl)cc13)CC2 [Compound 39, 6-chloro-4-[3-(2-methylpyrazol-3-yl)-7,8-dihydro-5H-1,6-naphthyridin-6-yl]quinazoline] | 84% | 0.06 µM
Cc1ncc(-c2cnc3c(c2)CN(c2ncnc4ccc(Cl)cc24)CC3)s1 [Compound 40, 5-[6-(6-chloroquinazolin-4-yl)-7,8-dihydro-5H-1,6-naphthyridin-3-yl]-2-methyl-thiazole] | 79% | 0.11 µM
CN(C)c1ccc(-c2cnc3c(c2)CN(c2ncnc4ccc(Cl)cc24)CC3)cn1 [Compound 41, 5-[6-(6-chloroquinazolin-4-yl)-7,8-dihydro-5H-1,6-naphthyridin-3-yl]-N,N-dimethyl-pyridin-2-amine] | 74% | 0.43 µM
Clc1ccc2ncnc(N3CCc4ncc(-c5ccc(C6CC6)nc5)cc4C3)c2c1 [Compound 42, 6-chloro-4-[3-(6-cyclopropyl-3-pyridyl)-7,8-dihydro-5H-1,6-naphthyridin-6-yl]quinazoline] | 72% | 0.38 µM
Cc1ccc(-c2cnc3c(c2)CN(c2ncnc4ccc(Cl)cc24)CC3)cn1 [Compound 43, 6-chloro-4-[3-(6-methyl-3-pyridyl)-7,8-dihydro-5H-1,6-naphthyridin-6-yl]quinazoline] | 79% | 0.07 µM

Results, then the compound that gave them:

Emax at 30 µM | EC50 | Compound
90% | 0.04 µM | Cc1nc(N2CCc3ncc(-c4cnn(C)c4)cc3C2)c2cc(F)ccc2n1 [Compound 21, 6-fluoro-2-methyl-4-[3-(1-methylpyrazol-4-yl)-7,8-dihydro-5H-1,6-naphthyridin-6-yl]quinazoline]
90% | 0.12 µM | Cc1nc(N2CCc3ncc(-c4c(C)noc4C)cc3C2)c2cc(F)ccc2n1 [Compound 22, 4-[6-(6-fluoro-2-methyl-quinazolin-4-yl)-7,8-dihydro-5H-1,6-naphthyridin-3-yl]-3,5-dimethyl-isoxazole]
93% | 0.17 µM | Cc1nc(N2CCc3ncc(-c4cnc(C)s4)cc3C2)c2cc(F)ccc2n1 [Compound 23, 5-[6-(6-fluoro-2-methyl-quinazolin-4-yl)-7,8-dihydro-5H-1,6-naphthyridin-3-yl]-2-methyl-thiazole]
92% | 0.59 µM | Cc1nc(N2CCc3ncc(-c4ccc(N(C)C)nc4)cc3C2)c2cc(F)ccc2n1 [Compound 24, 5-[6-(6-fluoro-2-methyl-quinazolin-4-yl)-7,8-dihydro-5H-1,6-naphthyridin-3-yl]-N,N-dimethyl-pyridin-2-amine]
96% | 0.31 µM | Cc1nc(N2CCc3ncc(-c4ccc(C5CC5)nc4)cc3C2)c2cc(F)ccc2n1 [Compound 25, 4-[3-(6-cyclopropyl-3-pyridyl)-7,8-dihydro-5H-1,6-naphthyridin-6-yl]-6-fluoro-2-methyl-quinazoline]
102% | 0.13 µM | Cc1ccc(-c2cnc3c(c2)CN(c2nc(C)nc4ccc(F)cc24)CC3)cn1 [Compound 26, 6-fluoro-2-methyl-4-[3-(6-methyl-3-pyridyl)-7,8-dihydro-5H-1,6-naphthyridin-6-yl]quinazoline]
113% | 0.51 µM | Cc1ccc2nc(Cl)nc(N3CCc4ncc(-c5cnn(C6CC6)c5)cc4C3)c2c1 [Compound 30, 2-chloro-4-[3-(1-cyclopropylpyrazol-4-yl)-7,8-dihydro-5H-1,6-naphthyridin-6-yl]-6-methyl-quinazoline]
95% | 0.23 µM | Cc1nn(C)cc1-c1cnc2c(c1)CN(c1nc(Cl)nc3ccc(F)cc13)CC2 [Compound 31, 2-chloro-4-[3-(1,3-dimethylpyrazol-4-yl)-7,8-dihydro-5H-1,6-naphthyridin-6-yl]-6-fluoro-quinazoline]
84% | 0.78 µM | Cc1ccc2nc(C)nc(N3CCc4ncc(-c5cn(C)nc5C)cc4C3)c2c1 [Compound 32, 4-[3-(1,3-dimethylpyrazol-4-yl)-7,8-dihydro-5H-1,6-naphthyridin-6-yl]-2,6-dimethyl-quinazoline]
92% | 0.38 µM | Cc1ccc2nc(C)nc(N3CCc4ncc(-c5cnn(C6CC6)c5)cc4C3)c2c1 [Compound 33, 4-[3-(1-cyclopropylpyrazol-4-yl)-7,8-dihydro-5H-1,6-naphthyridin-6-yl]-2,6-dimethyl-quinazoline]
53% | 0.6 µM | Clc1nc(N2CCc3ncc(-c4cnn(C5CC5)c4)cc3C2)c2cccnc2n1 [Compound 34, 2-chloro-4-[3-(1-cyclopropylpyrazol-4-yl)-7,8-dihydro-5H-1,6-naphthyridin-6-yl]pyrido[2,3-d]pyrimidine]
